Data published in patent publication US11420980B2, “Salt of pentacyclic compound and crystal thereof” (Eisai R&D Management Co., Ltd., priority 2019, dated 2022).

Experiments:
[1] = tested on: hippocampal vesicular acetylcholine transporter (VAChT); assay: Fimbria-fornix lesioned rat model: optical density in hippocampal VAChT; format: in vivo; conditions: fimbria-fornix lesioned rats, oral once a day after the operation, % of sham-operated group, mean±SEM, # significant vs vehicle (19.5 ± 6.4)
Experimental: (§1) Neuroprotective and Restorative Effect on Cholinergic Neurons Using Fimbria-Formix Lesioned Rat Model
(§2) (1) Preparation of Fimbria-Fornix Lesioned Rat Model
(§3) In this studs Sprague-Dawley male rats (Charles River Laboratories Japan, Inc.) with a body weight of about 250 to 350 g were used. The rat was anesthetized under the combination of three drugs: midazolam (2 mg/kg s.c.), medetomidine hydrochloride (0.15 mg/kg s.c.) and butorphanol tartrate (2.5 mg/kg s.c.) and fixed with a brain stereotaxis apparatus (Narishige Co., Ltd.). The cranial was exposed and a hole with 5 mm width was drilled in the skull from the median line 2 mm posterior to Bregma. A razor with 4 mm width was pierced into the Bregma in 5.5 mm depth to cut fimbria-fornix. […]
(§4) The prepared brain coronal frozen sections were stained with DAB (DAB PEROXIDASE SUBSTRATE KIT (Vector, SK-4100)) using a ChAT antibody (Santa Cruz, SC-20672) or a VAChT antibody (Merck Millipore, ABN100) as a primary antibody. The section image including the medial septal area or hippocampus as shown in “The mouse Brain in stereotaxic coordinates” (COMPACT THIRD EDITION, Keith B. J. Franklin & George Paxinos) was taken by an all-in-one fluorescence microscope (KEYENCE, BZ-X710) and ChAT positive cells of the medial septal area or optical density (OD) in hippocampal VAChT were measured by BZ analysis software (KEYENCE). […] Data are expressed as the mean±SEM. […]

[2] = tested on: Choline acetyltransferase (ChAT) mRNA; assay: Measurement of choline acetyltransferase (ChAT) mRNA expression levels in the rat septal area; format: in vivo; conditions: SD male rats, oral, 10 mg/kg, medial septum 24 hours after administration, qPCR
Experimental: Measurement of Choline Acetyltransferase (ChAT) mRNA Expression Levels in the Rat Septal Area
(§5) (1) Compound Administration
In this study, SD male rats (Charles River Laboratories Japan, Inc. with a body weight of about 250 to 350 g were used. The compound was dissolved in 0.01 mol/L hydrochloric acid, and orally administered.
At 24 hours after the administration of the compound, the whole brain tissue was collected under pentobarbital anesthesia. The medial septum was isolated from whole brain on ice and frozen with liquid nitrogen, and them stored at −80° C.
(3) Measurement of ChAT […] Expression Levels
For RNA purification, RNeasy Plus Mini Kit (#74136: QIAGEN) was used in this study. RNA purification was performed by the method described in the kit, After RNA purification, the total RNA concentration was measured by using QIAxpert Instrument (QIAGEN). cDNA was synthesized using SuperScript® VILO™ cDNA. Synthesis Kit (#11754: Thermo Fisher Scientific). The synthesis of cDNA was performed by the method described in the kit. […] Quantitative polymerase chain reaction (qPCR) was conducted using ABI PRISM® 7900HT (Thermo Fisher Scientific) by a fluorescence probe method. […]

[3] = tested on: acetylcholine (ACh) in cerebrospinal fluid (CSF); assay: Measurement of acetylcholine (ACh) in rat cerebrospinal fluid (CSF); format: in vivo; conditions: Fischer 344 male rats, oral once a day at 10 mg/kg for three days, CSF 24 hours after administration, LC-MS
Experimental: Measurement of Acetylcholine (ACh) in Rat Cerebrospinal Fluid (CSF)
Thus, the changes in acetylcholine in CSF were measured in order to determine the changes in intracerebral acetylcholine by the test compounds.
(2) Compound Administration
In this study Fischer 344 male rats (Charles River Laboratories Japan, Inc.) with a body weight of about 150 to 250 g were used. The test compounds were orally administered to the rats once a day at 10 mg/kg for three days. The vehicle used was 0.01 mol/L hydrochloric acid.
At 24 hours after the administration of the vehicle and the test compounds, the CSF was collected from cisterna magna in a tube containing AchE inhibitors under pentobarbital anesthesia. The collected CSF was centrifuged at 3500×g at 4° C. for 10 minutes and the supernatant was collected. The collected supernatant was frozen with liquid nitrogen, and then stored at −80° C.
(4) Measurement of Ach by LC-MS
To 10 μL of the CSF was added 50 μL of acetylcholine-d9 chloride (ACh-d9) at a final concentration of 0.34 nmol/L as an internal standard. […] The supernatant was collected and subjected to LC/MS ([…]), and Ach was detected as precursor ion at m/z 146.050 and as product ion at m/z 87.071 and ACh-d9 as an internal standard was detected as precursor ion at m/z 155.088 and as product ion at m/z 87.000.

[4] = tested on: ChAT positive cells of the medial septal area; assay: Evaluation in human tau P301S transgenic mouse (ChAT positive cells, medial septal area); format: in vivo; conditions: human tau P301S transgenic mice, oral once a day for three months (four- to seven-month-old), Dose: 5 mg/kg, mean±SEM, # significant vs vehicle (83.0 ± 5.8)
Description: Evaluation in Human Tau P301S Transgenic Mouse
as §5
In this study, the test compounds were orally administered to human tau P301S transgenic mice once a day for three months from four-month-old to seven-month-old. The vehicle used was 0.01 mol/L hydrochloric acid.
At the initial day of the administration (four-month-old) and at the next day of the final administration, mice of vehicle administration group and test compound administration group were anesthetized under pentobarbital (50 mg/kg, i.p.) and perfused with PBS. After the perfusion, the forebrain including the medial septal area was collected and fixed with 4% parafomaldehyde.
(3) Preparation of Brain Coronal Frozen Section
The collected forebrain including the medial septal area was immersed and shaken overnight in 4% paraformaldehyde. […]
The prepared brain coronal frozen sections were stained with DAB (DAB PEROXIDASE SUBSTRATE KIT (Vector, SK-4100)) using a ChAT antibody (Santa Cruz, SC-20672) as a primary antibody. The section image including the medial septal area as shown in “The mouse Brain in stereotaxic coordinates” (COMPACT THIRD EDITION, Keith B. J. Franklin & George Paxinos) was taken by an all-in-one fluorescence microscope (KEYENCE, […]) and […] positive cells around the major axis of the medial septal area were counted by BZ analysis software (KEYENCE). […] Data are expressed as the mean±SEM. […]

[5] = tested on: rat primary septal neuron culture; assay: Measurement of acetylcholine (ACh) release in the rat primary septal neuron culture system in the presence of NGF; format: cell-based; conditions: rat primary septal neurons, with NGF, one day after compound addition, HPLC
Description: Measurement of Acetylcholine (ACh) Release in the Rat Primary Septal Neuron Culture System in the Presence of NGF
(1) Rat Primary Septal Neuron Culture
The septal area was isolated from Sprague-Dawley (SD) rats (Charles River Laboratories Japan, Inc.) at a fetal age of 18 days, and cultured. Specifically, fetuses were aseptically removed from pregnant rats under isoflurane anesthesia. The brain was extracted from each fetus, and immersed in ice-cooled L-15 medium (11415-064. Thermo Fisher Scientific), The septal area was dissected from the extracted brain under a stereoscopic microscope. The dissected septal area was subjected to enzyme treatment in an enzyme solution containing 0.25% trypsin (15050-065. Thermo Fisher Scientific) and 0.01% DNase (D5025-1.50KU, Sigma) at 37° C. for 30 minutes, thereby dispersing the cells. In this case, the enzyme reaction was terminated by adding inactivated horse serum (26050-088. Thermo Fisher Scientific). The enzyme-treated solution was centrifuged at 1000 rpm for 3 minutes, and the supernatant was removed. A medium in an amount of 10 mL was added to the obtained cell mass. […]
One day after compound addition, an amount of ACh release was measured by HPLC in the following manner. […]

[6] = tested on: ChAT positive cells of the medial septal area; assay: Fimbria-fornix lesioned rat model: ChAT positive cells of the medial septal area; format: in vivo; conditions: fimbria-fornix lesioned rats, oral once a day after the operation, % of sham-operated group, mean±SEM, # significant vs vehicle (38.4 ± 5.0)
Experimental: as §1, §2, §3, §4

## CN1CCc2c(sc3nc4n(c(=O)c23)-c2sccc2C(=O)N(C)C4)C1 [Reference Example 1, 5,10-dimethyl-5,6,9,10,11,12-hexahydropyrido[4″,3″:4′,5′]thieno[2′,3′:4,5]pyrimido[1,2-a]thieno[3,2-f][1,4]diazepine-4,13-dione]
[1]
  OD in hippocampal VAChT (%) in test compound administration group: 66.1 ± 14.2^# %
[2]
  percentage of ChAT mRNA expression levels increased from the vehicle administration group: 56.4%
[3]
  ACh concentration in CSF, percentage (% of control) versus vehicle administration group: 156.8%
[4]
  Ratio (%) of number of ChAT positive cells compared to that in the initial administration: 105.3 ± 4.3^# %
[5]
  compound concentration showing a 20% increase from the ACh concentration in the buffer of the control group: 0.1 µM
[6]
  Number of ChAT positive cells (%) in test compound administration group: 74.1 ± 9.3^# %
